Measurements reported in EP1330253B1, “USE OF BIOACTIVE FRACTION FROM COW URINE DISTILLATE ('GO MUTRA') AS A BIO-ENHANCER OF ANTI-INFECTIVE, ANTI-CANCER AGENTS AND NUTRIENTS” (Council of Scientific and Industrial Research, priority 2000, dated 2002).
Like-named read-outs stand apart in the source and are kept apart here. One block for each molecule: values may come before it.

Tests used:
[1] = test system: oxyR mutant of bacterium Escherichia coli; assay type: cell-based; settings: for Fold enhancement in isoniazid/H2O2 activity: cow urine distillate 0.001 µl/ml
Method: For this, the cells are treated with compound for 4 to 8 hours and then washed free of it by centrifugation and washing in sterile water. This was followed by treatment with antibiotic as in steps b to d.

[2] = test system: MCF-7; experiment: Bio-enhancement of anti-cancer agents, viable cell count; assay type: cell-based; settings: distillate at 1 µl/ml
Method: • a) MCF-7 (Breast cancer commercial cell line obtained from National Center for Cell Sciences (NCCS), Pune) is inoculated at a density of about 0.1 X 10^6 cells in MEM medium in the wells of 24 well plate. • b) This is replaced with fresh medium after 18 hours in each well. • c) The test component (s) is added at desired concentrations in different wells just after the medium replacement. • d) Observations are recorded on the cell count after 36 hours for which the allowing steps are required. • i. The medium is removed from the wells. • ii. The wells are rinsed with 1ml PBS (Phosphate buffer saline). • iii. To each well 500 µl of freshly prepared trypsin (0.1% in PBS) solution is added. • iv. Trypsin solution is removed after 30 seconds and the plate is gently tapped till the cells are released from the plate surface. • v. Fresh 1 ml of MEM growth medium is added and agitated with a pipette to obtain a cell suspension. • vi. 10 µl of cell suspension is taken on the haemocytometer and a cover glass is placed over the counting chamber. • vii. The number of viable cells is counted in 5 big squares and the readings are taken from 5 microscopic fields to determine the average. • viii. The cell count (titer per ml) in the original sample is then calculated as average count X 10^3.

[3] = Bioenhancement of antifungal agent, minimum inhibitory concentration; assay type: cell-based; settings: active fraction Gm-IV kept at 10 µg/ml in the combination
[4] = test system: Bacillus subtilis; experiment: Bio-enhancement of anti-infective agents, broth assay with viable cell count; assay type: cell-based; settings: for Fold enhancement in antibiotic activity: cow urine distillate 1 µl/ml
Method: (§1) • a) The minimum inhibitory concentration (MIC) of antibiotic is determined against Escherichia coli (equivalent of ATCC 10536), Bacillus subtilis (equivalent of ATCC 6015) and Mycobacterium smegmatis (equivalent of ATCC 10231) in broth and disc diffusion assay. • b) The antibiotics agents at concentrations 1/4, 1/3, 1/2 and equal to MIC are added alone and in combination with the test compound at varying concentrations on disc and in broth to evaluate the comparative inhibition. • c) These combination showing significant advantage or higher activity than antibiotic alone in terms of enhanced inhibition of bacterial growth (large inhibition zone in disc diffusion and affectivity of lower concentration in broth assay) are picked up for future testing. • d) In broth assay the activity is quantified by counting number of viable cells in a given treatment and converted in fold enhancement by combination compared to antibiotic / drug alone in the killing percentage of cells. • e) The pre-treatment assay followed to determine whether the compound is required along with antibiotic to enhance its activity or even its withdrawal after treatment or prior to antibiotic treatment would benefit. For this, the cells are treated with compound for 4 to 8 hours and then washed free of it by centrifugation and washing in sterile water. This was followed by treatment with antibiotic as in steps b to d.
(§2) In the next step of elucidation of the enhancer action, the applicants experimented with the killing activities of different antibiotics against the bacteria singly and in combination with the test component (cow urine distillate) following the method described above. These experiments are being described in the following examples. […] In all the experiments the cow urine distillate concentration was kept at 1 µl/ml, unless it is specifically mentioned.

[5] = test system: Escherichia coli; experiment: as above; assay type: cell-based; settings: for Fold enhancement in antibiotic activity: cow urine distillate 1 µl/ml
Method: as §1, §2

[6] = test system: Mycobacterium smegmatis; experiment: as above; assay type: cell-based; settings: for Fold enhancement in antibiotic activity: cow urine distillate 1 µl/ml
Method: as §1, §2

[7] = for OD measured as Absorbance (specific to the compound maxima) across the membrane in receiving tube after 1 hr / OD measured as Absorbance (specific to the compound maxima) across the membrane in receiving tube after 2 hr / OD measured as Absorbance (specific to the compound maxima) across the membrane in receiving tube after 3 hr / OD measured as Absorbance (specific to the compound maxima) across the membrane in receiving tube after 4hr / OD measured as Absorbance (specific to the compound maxima) across the membrane in receiving tube after 5 hr / OD measured as Absorbance (specific to the compound maxima) across the membrane in receiving tube after 6 hr: Rifampicin 1mg/ml, fraction Gm-IV 1.0µg/ml
[8] = antibiotic 0.1 µg/ml + cow urine distillate 1 µl/ml
[9] = antibiotic 0.5 µg/ml + cow urine distillate 1 µl/ml
[10] = antibiotic 0.05 µg/ml + cow urine distillate 1 µl/ml

Compound: NNC(=O)c1ccncc1 [Isoniazid]
- Viable cell count ([1]; 250µg/ml): 7.5 x10^7
- Viable cell count ([1]; 250µg/ml + cow urine distillate 0.001 µl/ml): 0.99 x10^7
- Fold enhancement in isoniazid/H2O2 activity ([1]; 250µg/ml): 7.5
- enhancement action for INH ([1]; distillate at 10-50 thousand-fold dilution in the final volume of culture, organism not stated): showed enhancement action

Compound: CC(=O)O[C@H]1C(=O)[C@@]2(C)[C@H]([C@H](OC(=O)c3ccccc3)[C@]3(O)C[C@H](OC(=O)[C@H](O)[C@@H](NC(=O)c4ccccc4)c4ccccc4)C(C)=C1C3(C)C)[C@]1(OC(C)=O)CO[C@@H]1C[C@@H]2O [Taxol, Paclitaxel]
- enhancement in the activity of taxol [2]: at least 5 folds

Compound: OO [Hydrogen peroxide (H2O2), Hydrogen peroxide]
- Viable cell count ([1]; 0.003 %v/v): 7.14 x10^7
- Viable cell count ([1]; 0.003 %v/v + cow urine distillate 0.001 µl/ml): 1.2 x10^7
- Fold enhancement in isoniazid/H2O2 activity ([1]; 0.003 %v/v): 5.9

Compound: Clc1ccccc1C(c1ccccc1)(c1ccccc1)n1ccnc1 [Clotrimazol]
- Fold enhancement [3]: 0.0
- Minimum inhibitory Concentration (MIC) [3]: 4.40 µg/mL

Compound: CC1(C)S[C@@H]2[C@H](NC(=O)[C@H](N)c3ccccc3)C(=O)N2[C@H]1C(=O)O [Ampicillin]
- Survival fraction of viable cells upon treatment with antibiotic alone ([4]; antibiotic 0.1 µg/ml): 1.00
- Survival fraction of viable cells upon treatment with antibiotic + cow urine distillate combination [4, 8]: 0.3
- Fold enhancement in antibiotic activity ([4]; antibiotic 0.1 µg/ml): 3.3
- Survival fraction of viable cells upon treatment with antibiotic alone ([4]; antibiotic 0.5 µg/ml): 0.18
- Survival fraction of viable cells upon treatment with antibiotic + cow urine distillate combination [4, 9]: 0.06
- Fold enhancement in antibiotic activity ([4]; antibiotic 0.5 µg/ml): 3.0
- Survival fraction of viable cells upon treatment with antibiotic alone ([5]; antibiotic 4 µg/ml): 1.11
- Survival fraction of viable cells upon treatment with amlibiotic + cow urine distillate combination ([5]; antibiotic 4 µg/ml + cow urine distillate 1 µl/ml): 0.60
- Fold enhancement in antibiotic activity ([5]; antibiotic 4 µg/ml): 1.85
- Survival fraction of viable cells upon treatment with antibiotic alone ([5]; antibiotic 6 µg/ml): 0.09
- Survival fraction of viable cells upon treatment with amlibiotic + cow urine distillate combination ([5]; antibiotic 6 µg/ml + cow urine distillate 1 µl/ml): 0.02
- Fold enhancement in antibiotic activity ([5]; antibiotic 6 µg/ml): 4.50
- Survival fraction of viable cells upon treatment with antibiotic alone ([5]; antibiotic 8 µg/ml): 0.05
- Survival fraction of viable cells upon treatment with amlibiotic + cow urine distillate combination ([5]; antibiotic 8 µg/ml + cow urine distillate 1 µl/ml): 0.01
- Fold enhancement in antibiotic activity ([5]; antibiotic 8 µg/ml): 5.00
- Survival fraction of viable cells upon treatment with antibiotic alone ([6]; antibiotic 0.5 µg/ml): 0.07
- Survival fraction of viable cells upon treatment with antibiotic + cow urine distillate combination [6, 9]: 0.006
- Fold enhancement in antibiotic activity ([6]; antibiotic 0.5 µg/ml): 11.6

- OD measured as Absorbance (specific to the compound maxima) across the membrane in receiving tube after 1 hr ([7]; A340): 0.0097
- OD measured as Absorbance (specific to the compound maxima) across the membrane in receiving tube after 2 hr ([7]; A340): 0.0214
- OD measured as Absorbance (specific to the compound maxima) across the membrane in receiving tube after 3 hr ([7]; A340): 0.0334
- OD measured as Absorbance (specific to the compound maxima) across the membrane in receiving tube after 4hr ([7]; A340): 0.0771
- OD measured as Absorbance (specific to the compound maxima) across the membrane in receiving tube after 5 hr ([7]; A340): 0.0858
- OD measured as Absorbance (specific to the compound maxima) across the membrane in receiving tube after 6 hr ([7]; A340): 0.0910
- OD measured as Absorbance (specific to the compound maxima) across the membrane in receiving tube after 1 hr ([7]; A475): 0.0177
- OD measured as Absorbance (specific to the compound maxima) across the membrane in receiving tube after 2 hr ([7]; A475): 0.0284
- OD measured as Absorbance (specific to the compound maxima) across the membrane in receiving tube after 3 hr ([7]; A475): 0.0309
- OD measured as Absorbance (specific to the compound maxima) across the membrane in receiving tube after 4hr ([7]; A475): 0.0412
- OD measured as Absorbance (specific to the compound maxima) across the membrane in receiving tube after 5 hr ([7]; A475): 0.0484
- OD measured as Absorbance (specific to the compound maxima) across the membrane in receiving tube after 6 hr ([7]; A475): 0.0496
- enhancement of bioavailability across the mammalian gut membrane ([7]; with the sample, goat intestine, within 2 hours, keeps increasing upto 4 hours): enhancement of bioavailability
Compound: CO[C@H]1/C=C/O[C@@]2(C)Oc3c(C)c(O)c4c(O)c(c(/C=N/N5CCN(C)CC5)c(O)c4c3C2=O)NC(=O)/C(C)=C\C=C\[C@H](C)[C@H](O)[C@@H](C)[C@@H](O)[C@@H](C)[C@H](OC(C)=O)[C@@H]1C [Rifampicin]
- Survival fraction of viable cells upon treatment with antibiotic alone ([4]; antibiotic 0.005 µg/ml): 1.1
- Survival fraction of viable cells upon treatment with antibiotic + cow urine distillate combination ([4]; antibiotic 0.005 µg/ml + cow urine distillate 1 µl/ml): 0.28
- Fold enhancement in antibiotic activity ([4]; antibiotic 0.005 µg/ml): 5.5
- Survival fraction of viable cells upon treatment with antibiotic alone ([4]; antibiotic 0.05 µg/ml): 0.03
- Survival fraction of viable cells upon treatment with antibiotic + cow urine distillate combination [4, 10]: 0.01
- Fold enhancement in antibiotic activity ([4]; antibiotic 0.05 µg/ml): 3.0
- Survival fraction of viable cells upon treatment with antibiotic alone ([5]; antibiotic 10 µg/ml): 0.86
- Survival fraction of viable cells upon treatment with amlibiotic + cow urine distillate combination ([5]; antibiotic 10 µg/ml + cow urine distillate 1 µl/ml): 0.17
- Fold enhancement in antibiotic activity ([5]; antibiotic 10 µg/ml): 5.0
- Survival fraction of viable cells upon treatment with antibiotic alone ([5]; antibiotic 30 µg/ml): 0.05
- Survival fraction of viable cells upon treatment with amlibiotic + cow urine distillate combination ([5]; antibiotic 30 µg/ml + cow urine distillate 1 µl/ml): 0.007
- Fold enhancement in antibiotic activity ([5]; antibiotic 30 µg/ml): 7.1
- Survival fraction of viable cells upon treatment with antibiotic alone ([6]; antibiotic 0.05 µg/ml): 0.008
- Survival fraction of viable cells upon treatment with antibiotic + cow urine distillate combination [6, 10]: 0.0001
- Fold enhancement in antibiotic activity ([6]; antibiotic 0.05 µg/ml): 80
- Survival fraction of viable cells upon treatment with antibiotic alone ([6]; antibiotic 0.1 µg/ml): 0.006
- Survival fraction of viable cells upon treatment with antibiotic + cow urine distillate combination [6, 8]: 0.0036
- Fold enhancement in antibiotic activity ([6]; antibiotic 0.1 µg/ml): 1.5
